This assay addresses T1, KRas G12C (Homo sapiens, UniProt P01116, G12C).
T1 construct: NCI-H358 cells (ATCC CRL-5807) express KRas G12C; host or cells: NCI-H358
The assay can be described thus: Inhibition of KRas G12C in NCI-H358 cells measured by phosphorylated ERK (Phospho-ERK). The class given is cell-based. The settings on record: pERK(Thr202/Tyr204) signal normalized with GAPDH, percent of DMSO control, 3 hours compound treatment. How it is done:
The cellular inhibition of KRAs G12C by exemplary compounds of the present invention was determined by measuring the amount of a downstream marker of KRas activity, phosphorylated ERK (“Phospho-ERK”).
NCI-H358 cells (ATCC CRL-5807) express KRas G12C and were grown in RPMI medium supplemented with 10% fetal bovine serum, penicillin/streptomycin and 10 mM HEPES. Cells were plated in poly-D-Lysine coated 96-well plates at a concentration of 50,000 cells/well and allowed to attach for 8-12 hours. Diluted compounds were then added at a final concentration of 0.5% DMSO. After 3 hours, the medium was removed, 150 μL of 4% formaldehyde was added and the plates were incubated for 20 minutes. The plates were washed with PBS, and permeabilized using 150 μL of ice cold 100% methanol for 10 minutes. Non-specific antibody binding to the plates was blocked using 100 μL Licor Blocking Buffer (Li-Cor Biotechnology, Lincoln Nebr.) for 1 hour at room temperature. Positive control samples and samples lacking cells were parallel processed with test samples as standards.
The amount Phospho-ERK was determined using an antibody specific for the phosphorylated form of ERK and compared to the amount of GAPDH. Primary antibodies used for detection were added as follows: Phospho-ERK (Cell Signaling cs9101) diluted 1:500 and GAPDH (Millipore MAB374) diluted 1:5000 in Licor block+0.05% Tween 20. The plates were incubated for 2 hours at room temperature. The plates were washed with PBS+0.05% Tween 20.
Secondary antibodies used to visualize primary antibodies were added as follows: Anti-rabbit-680 diluted 1:1000 and Anti-mouse-800 diluted 1:1000 in Licor Block+0.05% Tween 20 and incubated for 1 hour at room temperature. The plates were washed with PBS+0.05% Tween 20. A 100 μL aliquot of PBS was added to each well and the plates were read on a LICOR AERIUS plate reader.
The pERK(Thr202/Tyr204) signal was normalized with the GAPDH signal and percent of DMSO control values were calculated. IC50 values were generated using a 4 parameter fit of the dose response curve. Key: “A”≤500 nM; “B”>500 nM and ND=not determined.

For orientation: IC50 means the midpoint of a concentration-inhibition curve.

T1 sequence (P01116 1-188 isoform P01116-2 G12C): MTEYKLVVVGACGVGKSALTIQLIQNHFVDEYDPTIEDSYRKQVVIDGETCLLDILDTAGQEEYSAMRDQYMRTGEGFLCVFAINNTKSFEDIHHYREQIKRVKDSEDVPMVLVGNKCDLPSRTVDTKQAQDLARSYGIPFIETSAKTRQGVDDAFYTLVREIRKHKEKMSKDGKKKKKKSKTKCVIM

As for `C=C(F)C(=O)N1CCN(c2nc(OC[C@@H]3CCCN3C)nc3c2CCCN(c2cccc4ccccc24)C3)C[C@@H]1CC#N` [Example 22, 2-((S)-1-(2-fluoroacryloyl)-4-(2-(((S)-1-methylpyrrolidin-2-yl)methoxy)-8-(naphthalen-1-yl)-6,7,8,9-tetrahydro-5H-pyrimido[4,5-c]azepin-4-yl)piperazin-2-yl)acetonitrile], the IC50 was > 500 nM.

On to `C=C(F)C(=O)N1CCN(c2ncnc3c2CCCN(c2cccc4cccc(C)c24)C3)C[C@@H]1CC#N` [Example 23, 2-[(2S)-1-(2-fluoroprop-2-enoyl)-4-[8-(8-methyl-1-naphthyl)-5,6,7,9-tetrahydropyrimido[4,5-c]azepin-4-yl]piperazin-2-yl]acetonitrile], for which the IC50 is > 500 nM.

As to `C=CC(=O)N1CCN(c2ncnc3c2CCCN(c2cccc4cccc(C)c24)C3)C[C@@H]1CC#N` [Example 25, 2-[(2S)-4-[8-(8-methyl-1-naphthyl)-5,6,7,9-tetrahydropyrimido[4,5-c]azepin-4-yl]-1-prop-2-enoyl-piperazin-2-yl]acetonitrile], the half-maximal inhibitory concentration (IC50) was > 500 nM.

On to `C=C(F)C(=O)N1CCN(c2nc(OC[C@@H]3CCCN3C)nc3c2CCCN(c2cccc4[nH]ncc24)C3)C[C@@H]1CC#N` [Example 26, 2-((S)-4-(8-(1H-indazol-4-yl)-2-(((S)-1-methylpyrrolidin-2-yl)methoxy)-6,7,8,9-tetrahydro-5H-pyrimido[4,5-c]azepin-4-yl)-1-(2-fluoroacryloyl)piperazin-2-yl)acetonitrile], for which the IC50 is > 500 nM.
